Read-outs that look alike come from different tables or passages of the source. *1 amine or outer side, *2 acyl side, *3 side chain or, on linkers, in order; H or OH if unused. Where a SMILES comes first, the peptide text is derived from it. [ ]: non-standard residue; d: D form. d(γGlu) = O=C(O)[C@@H](CCC(=O)[*:2])N[*:1]
Legend:
LdtMt2 [1] = molecular target: T1, LdtMt2 (Mycobacterium tuberculosis, UniProt I6Y9J2); assay: biochemical; type: binding; conditions: for ΔTm at 500 µM: pH 7.5, read-out: Shift in melting temperature compared to unmodified LdtMt2, 500 µM; for ΔTm at 1000 µM: pH 7.5, read-out: Shift in melting temperature compared to unmodified LdtMt2, 1 mM; for Shift in melting temperature compared to unmodified LdtMt2, 500 µM / Shift in melting temperature compared to unmodified LdtMt2, 1 mM / Tm 500 µM / Tm 1 mM: pH 7.5
T1 sequence (I6Y9J2 56-408): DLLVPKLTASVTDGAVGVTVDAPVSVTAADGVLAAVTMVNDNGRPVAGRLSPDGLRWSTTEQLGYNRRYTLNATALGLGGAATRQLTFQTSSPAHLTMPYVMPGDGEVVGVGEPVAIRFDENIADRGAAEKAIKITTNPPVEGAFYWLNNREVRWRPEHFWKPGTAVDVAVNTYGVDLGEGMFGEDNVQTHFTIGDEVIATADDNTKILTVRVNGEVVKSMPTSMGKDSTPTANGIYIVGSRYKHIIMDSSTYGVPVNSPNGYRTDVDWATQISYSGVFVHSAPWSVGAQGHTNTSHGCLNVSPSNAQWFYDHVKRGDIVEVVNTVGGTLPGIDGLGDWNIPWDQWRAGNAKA
Experimental: Differential scanning fluorometric thermal shift assays[32]
LdtMt2 (5 µM) was incubated with peptidoglycan fragments (500 µM or 1 mM) in buffer (50 mM tris pH 7.5) for 30 minutes at room temperature, after which time SYPRO Orange (final concentration 6x, according to manufacturer’s definition, Invitrogen) was added. Melting temperatures […]
See Methods for experimental details.
Table S1. […] The melting

LdtMt2 [2] = molecular target: T1, LdtMt2; assay: biochemical; type: biochemical
LdtMt2 [3] = molecular target: T1, LdtMt2; conditions: thiol-reactive fluorescent probe assay; quadruplicate; ref 6,7 (supplement); cited from earlier work
DAAO and HRP = assay: Transpeptidase interference assay (no LdtMt2, D-Ala as substrate); type: biochemical; conditions: for Transpeptidase interference assay pIC50 (mean ± SD): DAAO 2 U/mL, HRP 2 U/mL, FAD 40 µM, Amplex red 10 µM, 30 min rt, then D-alanine 500 nM, pH 8.0, quadruplicate
Experimental: The transpeptidase interference assay was performed as described above, with the modification that the LdtMt2 mixture was replaced by 5 µL assay buffer, and the substrate was replaced by D-Ala (500 nM final concentration). Data were analysed using Prism 10 (GraphPad).
Figure S14. Dose-response curves of the transpeptidase interference assay with compounds
14-24. The specified inhibitors were incubated with DAAO (2 U/mL), HRP (2 U/mL), FAD (40 μM) and
Amplex red (10 μM) in 50 mM sodium phosphate pH 8.0 with 100 mM NaCl at room temperature for 30
minutes, after which time D-alanine (500 nM) was added. The pIC50 values and compound structures
See Methods for experimental details. Individual data points are shown.

LdtMt2 [4] = molecular target: T1, LdtMt2; conditions: pH 8
LdtMt2 [5] = molecular target: T1, LdtMt2; conditions: pH 7.5
LdtMt2 [6] = molecular target: T1, LdtMt2; type: biochemical; conditions: pH 7.5
LdtMt2 [7] = molecular target: T1, LdtMt2; conditions: cited from earlier work
[8] = LdtMt2 500 nM, 30 min preincubation rt, substrate 1 35 µM, pH 8.0, 37 °C, n=3, read-out: pIC50, LdtMt2 inhibition by non-substrate peptidoglycan fragments (converted)

C[C@H](N)C(=O)N[C@H](CCC(=O)N[C@@H](CCCCN)C(=O)N[C@H](C)C(=O)N[C@H](C)C(=O)O)C(=O)O [Compound 8, L-Ala-D-iGlu-L-Lys-D-Ala-D-Ala, reference compound]
ΔTm at 500 µM (LdtMt2 [1]): 1.5 °C | ΔTm at 1000 µM (LdtMt2 [1]): 2 °C | IC50 (LdtMt2 [2]; [8]): 15.8 µM

C[C@H](N)C(=O)N[C@H](CCC(=O)N[C@@H](CCCCN)C(=O)N[C@H](C)C(=O)O)C(=O)O [Compound 10, L-Ala-D-iGlu-L-Lys-D-Ala, reference compound] (H-A[d(γGlu)]K[dA]-OH)
ΔTm at 500 µM (LdtMt2 [1]): 1.5 °C | ΔTm at 1000 µM (LdtMt2 [1]): 3 °C | IC50 (LdtMt2 [2]; [8]): 15.8 µM

C[C@H](N)C(=O)N[C@H](CCC(=O)N[C@@H](CCC[C@@H](N)C(=O)O)C(=O)O)C(=O)O [Compound 12, reference compound]
ΔTm at 500 µM (LdtMt2 [1]): 0.5 °C | ΔTm at 1000 µM (LdtMt2 [1]): 1 °C

N[C@H](CCC[C@H](NC(=O)CC[C@@H](N)C(=O)O)C(=O)O)C(=O)O [Compound 13, D-γ-Glu-m-DAP, reference compound]
ΔTm at 500 µM (LdtMt2 [1]): 1 °C | ΔTm at 1000 µM (LdtMt2 [1]): 1.5 °C

C[C@@H](O)[C@H]1C(=O)N2C(C(=O)O)=C(S[C@@H]3CN[C@H](C(=O)N(C)C)C3)[C@H](C)[C@H]12 [Compound 14, Meropenem]
Fluorogenic probe assay pIC50 (mean ± SD) (LdtMt2 [3]): 5.9 ± 0.04 | Transpeptidase interference assay pIC50 (mean ± SD) (DAAO and HRP): < 4.0 | IC50 (LdtMt2 [2]; LdtMt2 500 nM, 30 min preincubation rt, substrate 1 35 µM, 50 mM sodium phosphate pH 8.0, 100 mM NaCl, 37 °C, quadruplicate, read-out: Transpeptidase activity assay pIC50 (mean ± SD) (converted)): 0.631 µM

C[C@@H](O)[C@H]1C(=O)N2C(C(=O)O)=C([C@H]3CCCO3)S[C@H]12 [Compound 15, Faropenem]
Transpeptidase interference assay pIC50 (mean ± SD) (DAAO and HRP): < 4.0

O=c1c2ccccc2[se]n1-c1ccccc1 [Compound 24, Ebselen]
Fluorogenic probe assay pIC50 (mean ± SD) (LdtMt2 [3]): 6.7 ± 0.04 | Transpeptidase interference assay pIC50 (mean ± SD) (DAAO and HRP): 5.0 ± 0.4 | Interference with the DAAO/HRP assay (DAAO and HRP; inhibition of DAAO and HRP, in words): cause interference | Transpeptidase activity assay pIC50 (mean ± SD) (LdtMt2 [2]; LdtMt2 500 nM, 30 min preincubation rt, substrate 1 35 µM, 50 mM sodium phosphate pH 8.0, 100 mM NaCl, 37 °C, quadruplicate): 6.8 ± 0.2

GlcNAc-MurNAc-L-Ala-D-iGluNH2-m-DAPNH2-D-Ala [Compound 1]
Reaction rate (LdtMt2 [4]): 120.0 ± 1.7 RFU min^−1 | Vmax (LdtMt2 [4]): Ambiguous | Covalent adducts of LdtMt2 (SPE-MS) (LdtMt2 [5]): no covalent adducts of LdtMt2 were observed | Shift in melting temperature compared to unmodified LdtMt2, 500 µM (LdtMt2 [1]): +1.5 °C | Shift in melting temperature compared to unmodified LdtMt2, 1 mM (LdtMt2 [1]): +2.0 °C | Tm 500 µM (LdtMt2 [1]): 45 °C | Tm 1 mM (LdtMt2 [1]): 45.5 °C | LdtMt2 turnover / transpeptidase product formation (LC-MS) (LdtMt2 [6]): led to formation of products

GlcNAc-MurNAc-L-Ala-D-iGluNH2-m-DAPNH2-D-Ala-D-Ala [Compound 4]
Shift in melting temperature compared to unmodified LdtMt2, 1 mM (LdtMt2 [1]): +2.5 °C | Tm 500 µM (LdtMt2 [1]): 45.5 °C | Tm 1 mM (LdtMt2 [1]): 46 °C | LdtMt2 inhibition by non-substrate peptidoglycan fragments, in words (LdtMt2 [2]; pH 8): modest LdtMt2 inhibition | LdtMt2 turnover / transpeptidase product formation (LC-MS) (LdtMt2 [6]): did not manifest evidence for reaction

GlcNAc-Muramitol-L-Ala-D-iGluNH2-m-DAPNH2-D-Ala [Compound 2]
LdtMt2 turnover / transpeptidase product formation (LC-MS) (LdtMt2 [6]): led to formation of products

GlcNAc-muramitol-L-Ala-D-iGluNH2-m-DAPNH2-D-Ala-D-Ala [reduced pentapeptide monomer of Mtb]
LdtMt2 substrate or not (LdtMt2 [7]): is not an LdtMt2 substrate

L-Ala-D-iGluNH2-L-Lys-D-Ala [Compound 11]
LdtMt2 turnover / transpeptidase product formation (LC-MS) (LdtMt2 [6]): is not a substrate for LdtMt2

lactoyl-L-Ala-D-iGluNH2-m-DAPNH2-D-Ala [Compound 3]
Km (LdtMt2 [4]): 6.2 mM | Reaction rate (LdtMt2 [4]): 224.2 ± 2.6 RFU min^−1 | Vmax (LdtMt2 [4]): 1.4 ± 0.5 | kcat (LdtMt2 [4]): 2.6 ± 0.9 | kcat/KM (LdtMt2 [4]): 0.07 M⁻¹ s⁻¹ | kcat/Km (LdtMt2 [4]): 0.07 M⁻¹ s⁻¹ | Covalent adducts of LdtMt2 (SPE-MS) (LdtMt2 [5]): no covalent adducts of LdtMt2 were observed | Shift in melting temperature compared to unmodified LdtMt2, 500 µM (LdtMt2 [1]): +1.5 °C | Shift in melting temperature compared to unmodified LdtMt2, 1 mM (LdtMt2 [1]): +2.0 °C | Tm 500 µM (LdtMt2 [1]): 45 °C | Tm 1 mM (LdtMt2 [1]): 45.5 °C | LdtMt2 turnover / transpeptidase product formation (LC-MS) (LdtMt2 [6]): led to formation of products

From publication PMC11410929, “Biochemical and crystallographic studies of L,D-transpeptidase 2 from Mycobacterium tuberculosis with its natural monomer substrate” (Communications Biology, 2024)
